Assay results from patent US6426355B1, “Heterocyclic carboxamide-containing thiourea inhibitors of herpes viruses containing phenylenediamine group” (American Home Products, priority 1998, dated 2002).
In brackets after ≈: the same amount, converted by molar mass.

Experiments:
[1] = tested on: HCMV recombinant mutant virus (RV145); test: HCMV microtiter plate assay (beta-glucuronidase reporter); format: cell-based, Human Cytomegalovirus; conditions: for IC50: Human betaherpesvirus 5, Fibroblast, read-out: IC50 (ug/ml) HCMV; for IC50 (ug/ml) HCMV: HCMV in human foreskin fibroblasts
Procedure, shortened: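 Replication was read out as virus-encoded β-glucuronidase activity, measured with a chromogenic or fluorogenic glucuronide substrate in cell lysates at 96 h post-infection. Infection of human foreskin fibroblasts with RV145 took place with compound present. IC50 was derived from a range of inhibitor amounts.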

HSV-1 = test: HSV Antiviral (ELISA) assay; format: cell-based; conditions: for IC50: Human alphaherpesvirus 1, HSV-1 in Vero cells, read-out: IC50 (ug/ml) HSV; for IC50 (ug/ml) HSV: HSV-1 in Vero cells
Procedure, shortened: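 Replication measured as glycoprotein D signal in fixed cells: anti-gD antibody plus β-galactosidase-linked secondary, fluorogenic substrate read at 365/450 nm. Vero cells (2% FBS DMEM) received compound 30 min pre-infection, HSV-1 MOI 0.006, ~24 h incubation; IC50 relative to no-compound fluorescence.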

VZV strain Ellen = test: VZV Antiviral (ELISA) assay; format: cell-based; conditions: for IC50: Human alphaherpesvirus 3, VZV strain Ellen in HFF cells, read-out: IC50 (ug/ml) VZV; for inhibition at 10 µg/mL: Human alphaherpesvirus 3, read-out: % inhibition 10 ug/ml VZV, at 10 ug/ml, VZV strain Ellen in HFF cells; for IC50 (ug/ml) VZV / % inhibition 10 ug/ml VZV: VZV strain Ellen in HFF cells; for % inhibition 10 ug/ml VZV: at 10 ug/ml
Procedure, shortened: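 Antiviral IC50 is derived by comparing fluorescence with and without compound after a three-day culture of VZV-infected plus uninfected foreskin fibroblasts. Replication is quantified by ELISA against glycoprotein II, using a β-galactosidase secondary and methyl umbelliferyl-β-D-galactoside.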

SMILES | IC50 [1] | IC50 (HSV-1) | IC50 (VZV strain Ellen) | inhibition at 10 µg/mL (VZV strain Ellen) | IC50 (ug/ml) HCMV [1] | IC50 (ug/ml) HSV (HSV-1) | IC50 (ug/ml) VZV (VZV strain Ellen) | % inhibition 10 ug/ml VZV (VZV strain Ellen)
CN(C)c1ccc(NC(=S)Nc2ccc(NC(=O)c3csnn3)cc2)cc1Cl [Example 902, [1,2,3]Thiadiazole-4-carboxylic acid {4-[3-(3-chloro-4-dimethylamino-phenyl)-thioureido]-phenyl}-amide] | 0.12 µg/mL (≈ 0.277 µM) | > 10 µg/mL | > 10 µg/mL | 10% |  |  |  | 
COc1cc(OC)c(NC(=S)Nc2ccc(NC(=O)c3ccco3)cc2)cc1Br [Example 879, Furan-2-carboxylic acid {4-[3-(5-bromo-2,4-dimethoxy-phenyl)-thioureido]-phenyl}-amide] | 0.3 µg/mL (≈ 0.63 µM) | 4 µg/mL (≈ 8.4 µM) | 10 µg/mL (≈ 21 µM) | 65% |  |  |  | 
O=C(Nc1ccc(NC(=S)Nc2ccc(Cl)c(C(F)(F)F)c2)cc1)c1ccco1 [Example 378] |  |  |  |  | 0.033 µg/mL (≈ 0.075 µM) | >10 µg/mL | >10 µg/mL | 31%
O=C(CN1CCSCC1)Nc1ccc(NC(=S)Nc2ccc(NC(=O)c3ccco3)cc2)cc1Cl [Example 406] |  |  |  |  | 0.12 µg/mL (≈ 0.226 µM) | >10 µg/mL | >10 µg/mL | 28%
NNC(=O)c1cccc(NC(=S)Nc2ccc(NC(=O)c3csnn3)cc2)c1 [Example 449] |  |  |  |  | 1.6 µg/mL (≈ 3.87 µM) | >10 µg/mL | >10 µg/mL | 
O=C(Nc1ccc(CNC(=S)Nc2ccc(Cl)c(Cl)c2)cc1)c1csnn1 [Example 630] |  |  |  |  | 0.4 µg/mL (≈ 0.912 µM) | >10 µg/mL | 4 µg/mL (≈ 9.12 µM) | 
CC(=O)Nc1ccc(NC(=S)Nc2ccc(C)c(Cl)c2)cc1 [Example 939, N-{4-[3-(3-Chloro-4-methyl-phenyl)-thioureido]-phenyl} -acetamide] | 0.018 µg/mL (≈ 0.0539 µM) | > 10 µg/mL | 15 µg/mL (≈ 44.9 µM) | 53% |  |  |  | 
CN(C)CC(=O)Nc1ccc(NC(=S)Nc2ccc(NC(=O)c3ccco3)cc2)cc1Cl [Example 361] |  |  |  |  | 0.25 µg/mL (≈ 0.53 µM) | 8 µg/mL (≈ 17 µM) | >10 µg/mL | 26%
CCC(C)Cc1cc(NC(=S)Nc2ccc(NC(=O)c3csnn3)cc2)cc(C(F)(F)F)c1 (stereo not shown) [Example 556] |  |  |  |  | 0.006 µg/mL (≈ 0.0122 µM) | >10 µg/mL | >7.5 µg/mL | 
CN(c1ccc(NC(=S)Nc2ccc(NC(=O)c3csnn3)cc2)cc1Cl)C1CCCCC1 [Example 237] |  |  |  |  | 0.02 µg/mL (≈ 0.0399 µM) | >10 µg/mL | >10 µg/mL | 17%
O=C(Nc1ccc(CNC(=S)Nc2cc(Cl)cc(Cl)c2)cc1)c1csnn1 [Example 635] |  |  |  |  | 0.15 µg/mL (≈ 0.342 µM) | >10 µg/mL | 4 µg/mL (≈ 9.12 µM) | 
O=C(Nc1ccc(NC(=S)NCc2cc(C(F)(F)F)cc(C(F)(F)F)c2)cc1)c1ccco1 [Example 547] |  |  |  |  | 0.006 µg/mL (≈ 0.0123 µM) | >10 µg/mL | 10 µg/mL (≈ 20.5 µM) | 
COc1cc(OC)c(NC(=S)Nc2ccc(NC(=O)c3cncc4ccccc34)cc2)cc1Cl [Example 172] |  |  |  |  | >10 µg/mL | >10 µg/mL | >10 µg/mL | 25%
O=C(Nc1ccc(NC(=S)Nc2ccc(I)c(Cl)c2)cc1)c1csnn1 [Example 971, [1,2,3]Thiadiazole-4-carboxylic acid {4-[3-(3-chloro-4-iodo-phenyl)-thioureido]-phenyl} -amide] | 0.013 µg/mL (≈ 0.0252 µM) | > 10 µg/mL | > 10 µg/mL | 9% |  |  |  | 
CC(=O)Nc1ccc(NC(=S)Nc2cc(Cl)ccc2Cl)cc1 [Example 980, N-{4-[3-(2,5-Dichloro-phenyl)-thioureido]-phenyl} -acetamide] | 0.05 µg/mL (≈ 0.141 µM) | > 10 µg/mL |  | 56% |  |  |  | 
CN(C)c1cccc(NC(=S)Nc2ccc(NC(=O)c3ccco3)cc2)c1 [Example 455] |  |  |  |  | 0.3 µg/mL (≈ 0.788 µM) | >10 µg/mL | >10 µg/mL | 30%
